# Results reported in patent US20140221301A1, “COMBINATION TREATMENT FOR CANCER” (priority 2011, published 2014).
# Tests used:
# [1] = tested on: TEX cells; assay: Chemical screen, MTS assay, TEX cells; format: cell-based, human; conditions: 10 μM, 72 hours
# Excerpt: To identify compounds active against leukemia stem cells, a library of drugs (n=312) with well-characterized pharmacokinetics and toxicology and a wide therapeutic window was compiled. This library was then screened to identify agents that reduced the viability of TEX and M9-ENL1 cells. TEX and M9-ENL1 cells were derived from lineage-depleted human cord blood cells (Lin-CB) transduced with TLS-ERG or MLL-ENL oncogenes, respectively, and, as shown previously, display properties of stem cells including hierarchal differentiation and marrow repopulation^14, 15. In this screen, TEX and M9-ENL1 cells were treated with aliquots of the compounds. After incubation, cell growth and viability was measured by the MTS assay. From this screen, tigecycline was identified.
# TEX, and M9-ENL-1 cells were seeded into 96-well polystyrene tissue culture plates (Corning). […] 72 (TEX) and 48 (M9-ENL-1) hours after incubation, cell growth and viability was measured by MTS assay. […]
# Cell growth and viability was assessed by the MTS assay (Promega, Madison, Wis.) according to the manufacturer's instructions. Apoptosis and cell death was measured by Annexin V-fluroscein isothiocyanate (FITC; Biovision Research Products, Mountain View, Calif.), propidium iodide staining and flow cytometry according to the manufacturer's instructions and as previously described^30. […]
# [2] = tested on: primary AML patient samples; assay: Methylcellulose colony formation assay, primary AML cells; format: cell-based, human; conditions: 5 μM, primary AML patient samples n=7, 7 days
# Protocol: FIG. 2. Tigecycline induces cell death and inhibits clonogenic growth in primary AML cells preferential over normal hematopoietic cells. Mononuclear cells from peripheral blood of leukemia patients (blast count>80%) and normal G-CSF expanded donors was treated with increasing concentrations of tigecycline for 48 hours. Cell viability was measured by Annexin-PI flow cytometry staining. Cell viability is expressed as a mean percentage plus or minus SD (n=3) relative to DMSO-treated cells. Mononuclear cells from primary AML patient samples (A, B) and normal peripheral blood cells (C) were plated in methylcelluose with 5 μM of Tigecycline. (D) Colony forming units were counted at 7 days (AML) and 14 days (Normal) post plating. […]
# To assess clonogenic growth, primary AML cells (1.0×10^5/mL) or granulocyte colony-stimulating factor (G-CSF) mobilized PBSCs (1.0×10^5/mL) were plated in duplicate with increasing concentrations of tigecycline in MethoCult GF H4434 medium (StemCell Technologies, Vancouver, BC) containing 1% methycellulose in IMDM, 30% FCS, 1% bovine serum albumin, 3 U/mL of recombinant human erythropoietin, 10^−4 M of 2-mercaptoethanol, 2 mM of L-glutamine, 50 ng/mL of recombinant human stem cell factor, 10 ng/mL of GM-CSF, and 10 ng/mL of rh IL-3). Seven days (AML samples) or 14 days (normal PBCS) after plating, the number of colonies was counted as previously described^31.
# [3] = tested on: OCI-AML2 human leukemia cells; format: in vivo, SCID mice
# Protocol: FIG. 3. Tigecycline has anti-leukemia activity in vivo. (A, B) Human leukemia cells (OCI-AML2) were injected subcutaneously into the flank of SCID mice. Seven days after injection, once tumors were palpable, mice were treated with tigecycline (50 mg/kg or 100 mg/kg twice daily by i.p. injection) or vehicle control (n=10 per group). Fourteen days after injection of cells, mice were sacrificed, tumors excised and the volume and mass of the tumors were measured. The tumor mass and the mean volume+SD are shown. Differences in tumor volume and mass were analyzed by an unpaired t-test: *p<0.001. (C) Tumours from two control mice, and three tigecycline-treated mice were excised after 5 days of treatment and total proteins were extracted and analyzed by western blotting for Cox-1, Cox-2, Cox-4, and tubulin. (D) Primary cells from three AML patients were injected intra-femorally into the right femur of female sub-lethally irradiated NOD/SCID mice. Three weeks after injection mice were treated with tigecycline (100 mg/kg by i.p. injection daily) or vehicle control (n=10 per group) for three weeks. Following treatment, human leukemia cell engraftment in the injected right femur was measured by FACS analysis for human CD45^+CD19^−CD33^+ cells. Data represent mean±SD of engrafted human cells. Cells from one patient experiment were used to assess secondary engraftment in a second generation of NOD/SCID mice. Equal numbers of viable leukemia cells from bone marrow of control and tigecycline treated mice were injected into irradiated NOD/SCID mice, which were not treated with tigecycline. Six weeks later, human leukemia cell engraftment in the injected right femur was measured by FACS analysis for human CD45^+CD19^−CD33^+cells. (*p<0.005, Student's t-test).
# OCI-AML2 human leukemia cells (1×10^6) were injected subcutaneously into the flanks of SCID mice (Ontario Cancer Institute, Toronto, ON). Seven days after injection, once tumours were palpable, mice were treated with tigecycline twice daily (50 mg/kg or 100 mg/kg by i.p. injection) or vehicle control (n=10 per group) for 14 days. Tumor volume (tumor length x width^2×0.5236) was measured three times a week using calipers. Twenty-one days after injection of cells, mice were sacrificed, tumors excised and the volume and mass of the tumors were measured.
# Given the effects of tigecycline as a potential anti-leukemia agent, tigecycline in mouse models of leukemia was evaluated. To evaluate the anti-tumor efficacy of tigecycline in vivo, human OCI-AML2 leukemia cells were injected into the flank of SCID mice. […] Tumor volume and mass were measured over time (FIG. 3A, B). […]
# [4] = 50 mg/kg or 100 mg/kg twice daily i.p., 14 days
compound,measurement,setting,value
CN(C)c1cc(NC(=O)CNC(C)(C)C)c(O)c2c1C[C@H]1C[C@H]3[C@H](N(C)C)C(O)=C(C(N)=O)C(=O)[C@@]3(O)C(O)=C1C2=O [tigecycline],cell growth and viability in screen,[1],cell growth inhibitor
same,reduction of clonogenic growth,[2],93±4%
same,expression of Cox-1 and Cox-2 relative to Cox-4 in tumours,"[3]; 50 mg/kg bid for 5 days, western blotting",preferential decreased expression
same,decrease of tumor mass compared to vehicle control,[3]; [4],up to 70%
same,decrease of tumor volume compared to vehicle control,[3]; [4],up to 70%
same,toxicity in treated mice,"[3]; mouse, in vivo",No evidence of toxicity
